Assay results from ChEMBL document CHEMBL3301361, “Experimental in vitro DMPK and physicochemical data on a set of publicly disclosed compounds”.
In brackets after ≈: the same amount, converted by molar mass.

Experiments:
[1] = physchem; details: pH 7.4 buffer
[2] = in vitro; details: human
[3] = in vitro; details: hepatocytes
[4] = physchem; details: octan-1-ol/water

Row | SMILES | solubility thermodynamic [1] [µM] | microsomal CLint ([2]; microsomes) [µL/min/mg] | hepatocyte CLint [3] [µL/min/1e6 cells] | logD ([4]; pH 7.4, LogD7.4) | microsomal CLint ([2]; liver microsomes) [µL/min/mg] | logD ([4]; pH 7.4)
1 | CCNC(=O)c1cnc(N2CCN(C3CCN(Cc4ccc(Cl)cc4F)CC3)[C@@H](CC)C2)c(Cl)c1 | 91.2 (≈ 47.7 µg/mL) | 11 | 38 |  |  | 
2 | O=C(Nc1cccc(CCO)c1)c1cc2cc(Cl)ccc2[nH]1 |  |  | > 150 | 3.83 | 10 | 
3 | Cc1cccc2c(CCNCc3cccc(CCNC[C@H](O)c4ccc(O)c5[nH]c(=O)sc45)c3)c[nH]c12 |  |  | 24 | 1.13 | 16 | 
4 | Cc1nn(-c2ccc(F)cc2)c(NS(=O)(=O)c2cccnc2)c1C(=O)N[C@@H](C)C(C)(C)C |  |  | 12 | 0.4 | < 3 | 
5 | O=c1[nH]c2c(O)ccc([C@@H](O)CNCCc3cccc(CN4CCC(c5ccccc5)CC4)c3)c2s1 |  | 27 | 29 | 1.99 |  | 
6 | Cn1c(-c2ccccc2C(F)(F)F)nnc1C12CCC(c3noc(-c4ccc(F)cc4)n3)(CC1)CC2 | 0.9 (≈ 0.448 µg/mL) |  | 7.94 |  | < 3 | 
7 | O=c1[nH]c2c(O)ccc([C@@H](O)CNCCOc3cccc(CNCCc4ccccc4F)c3)c2s1 |  | 14 | 23 | 1.86 |  | 
8 | O=C(CCOCCc1ccccc1)NCCNCCc1ccc(O)c2nc(O)sc12 | 1510 (≈ 650 µg/mL) | 25 | 72 |  |  | 
9 | CCOc1nc2cccc(C(=O)O)c2n1Cc1ccc(-c2ccccc2-c2nnn[nH]2)cc1 |  |  | < 3 | 0.3 | < 3 | 
10 | Cc1nc2ncnn2c(O)c1CCOC(=O)c1ccccc1F |  |  | 129 | 0.99 | > 150 | 
11 | c1csc(Cn2nnnc2CN2CCN(c3nc4ccccc4s3)CC2)c1 |  |  | > 150 | 3.65 | 99 | 
12 | COCC1=C(C(=O)OC(C)OC(=O)OC(C)C)N2C(=O)[C@@H](NC(=O)/C(=N\OC)c3csc(N)n3)[C@H]2SC1 (stereo partly drawn) [CEFPODOXIME PROXETIL] |  |  | 115 | 1.7 | > 150 | 
13 | COc1ccc2nc(C)cc(OCC(=O)Nc3ccccc3OC)c2c1 |  | 138 | > 150 | 3.9 |  | 
14 | CCn1c(C)c(C(=O)O)c(-c2cccc(N3CCN(c4ccc(NS(=O)(=O)c5ccc(N[C@H](CCN6CCC(O)CC6)CSc6ccccc6)c(S(=O)(=O)C(F)(F)F)c5)cc4)CC3)c2)c1-c1ccc(Cl)cc1 |  |  | 17.4 | 4.2 | 15.1 | 
15 | Cc1nc2ccccn2c1-c1ccnc(N)n1 | 1510 (≈ 341 µg/mL) | 50.1 | 21.4 |  |  | 
16 | CCOc1ccc(CCNCCCSCCNC[C@H](O)c2ccc(O)c3[nH]c(=O)sc23)cc1 |  |  | 8 | 0.41 | 75 | 
17 | Cc1nc2ncnn2c(O)c1CCOC(=O)c1c(F)cccc1F |  |  | 64.3 | 0.16 | > 150 | 
18 | Nc1c(C(=O)c2cccc(OC[C@@H](O)CO)c2)cnn1-c1ccc(F)cc1 [RO-3201195] |  | < 3 | < 3 | 1.91 |  | 
19 | O=c1[nH]c2c(O)ccc([C@@H](O)CNCCc3cccc(CNCc4ccccc4Cl)c3)c2s1 |  |  | 60 | 1.85 | 47 | 
20 | CN1CCC(Oc2cccc3ncnc(Nc4ccc(OCc5ccccn5)c(Cl)c4)c23)CC1 | 1.5 (≈ 0.714 µg/mL) |  | 11 |  | 22 | 
21 | Cn1c(=O)c(Oc2ccc(F)cc2F)cc2cnc(NC(CCO)CCO)nc21 [PAMAPIMOD] |  | 4.57 | < 3 | 1.5 |  | 

Row | SMILES | solubility thermodynamic [1] [µM] | microsomal CLint ([2]; microsomes) [µL/min/mg] | hepatocyte CLint [3] [µL/min/1e6 cells] | logD ([4]; pH 7.4, LogD7.4) | microsomal CLint ([2]; liver microsomes) [µL/min/mg] | logD ([4]; pH 7.4)
22 | COc1ccc(CC(=O)NC(NC(=NC#N)Nc2ccccc2C)C(C)(C)C)cc1OC (stereo not drawn) |  |  | 26 | 2.48 | > 150 | 
23 | CCC(CC)NC(=O)c1cnn(-c2ccccc2)c1NS(=O)(=O)c1ccc(-c2cnco2)cc1 |  |  | 52 | 0.8 | 27 | 
24 | O=C(Nc1c[nH]nc1-c1nc2cc(CN3CCOCC3)ccc2[nH]1)NC1CC1 [AT-9283] |  |  | < 3 | 2.3 | 8.32 | 
25 | Cc1ccc(S(=O)(=O)Nc2c(C(=O)NC3CCCCC3C)cnn2-c2ccccc2)cc1 (stereo not drawn) |  |  | 5 | 1.34 | 59 | 
26 | Cc1cc(CCCOc2c(C)cc(-c3noc(C(F)(F)F)n3)cc2C)on1 [PLECONARIL] |  |  | 13.5 | 3.63 | 14.4 | 
27 | COc1nc(N)nc2c1ncn2[C@@H]1O[C@H](CO)[C@@H](O)[C@H]1O |  | 42.7 | 10.5 |  |  | -0.58
28 | Nc1ncnc2c1ncn2[C@@H]1O[C@H](CSCCCNC(=O)Nc2ccccc2)[C@@H](O)[C@H]1O |  | 9.77 | 28.2 | 1.9 |  | 
29 | Oc1ncnc2c1c(-c1ccccc1)cn2-c1ccc(Br)cc1 | 1.6 (≈ 0.586 µg/mL) |  | 52.5 |  | 60.3 | 
30 | CCN(CC)c1ccc2cc(C(C)=O)c(=O)oc2c1 |  |  | > 150 | 2 | 120 | 
31 | COc1ccc2nc(C)cc(OCC(=O)NCc3ccccc3)c2c1 |  |  | 120 | 3.2 | > 150 | 
32 | N#CC1(NC(=O)[C@@H]2CCCC[C@H]2C(=O)N2CCc3[nH]c4ccc(F)cc4c3C2)CC1 | 525 (≈ 214 µg/mL) |  | 41.4 |  | 12.5 | 
33 | Cc1oc(=O)oc1CN1CCN(c2cc3c(cc2F)c(=O)c(C(=O)O)c2n3C(C)S2)CC1 (stereo not drawn) [PRULIFLOXACIN] |  |  | 69.2 | 0.47 | 15.5 | 
34 | CNS(=O)(=O)Cc1ccc2[nH]cc(CCN(C)C)c2c1 |  |  | 8 | -0.96 | < 3 | 
35 | O=C(Nc1cccc(-c2nnn[nH]2)c1)c1cc(C(F)(F)F)cc2[nH]cnc12 |  |  | 17.4 | 1.1 | 4.47 | 
36 | O=C(c1csc2c1CCCC2)N1CCCCC1 |  | 117 | > 150 | 3.2 |  | 
37 | O=C(O)COc1ccc(C(=O)c2cccs2)c(Cl)c1Cl |  | 82 | 61 | -0.84 |  | 
38 | COc1ccccc1CN(C)Cc1cccc(CCNC[C@H](O)c2ccc(O)c3[nH]c(=O)sc23)c1 |  |  | 33 | 1.52 | 45 | 
39 | O=C(C1CCN(c2nnc(-n3cccc3)s2)CC1)N1CCc2ccccc2C1 |  |  | 46.8 |  | 83.2 | 3.7
40 | CN(CCNC[C@H](O)c1ccc(O)c2[nH]c(=O)sc12)C(=O)CCOCCc1ccccc1 |  |  | 43 | 1.21 | 35 | 
41 | O=c1[nH]c2c(O)ccc([C@@H](O)CNCCc3ccccc3CNCCc3ccccc3F)c2s1 |  | 27.5 | 107 | 1.58 |  | 
42 | Oc1nc2c(O)ccc(CCNCCCCCCOCCc3ccccc3)c2s1 |  | 29 | 88 | 2.21 |  | 

Row | SMILES | solubility thermodynamic [1] [µM] | microsomal CLint ([2]; microsomes) [µL/min/mg] | hepatocyte CLint [3] [µL/min/1e6 cells] | logD ([4]; pH 7.4, LogD7.4) | microsomal CLint ([2]; liver microsomes) [µL/min/mg] | logD ([4]; pH 7.4)
43 | CCC(CC)NC(=O)c1cnn(-c2ccccc2Cl)c1NS(=O)(=O)c1ccc(C)cc1 |  |  | 56 | 0.65 | 72 | 
44 | O=C(NCC12CC3CC(CC(C3)C1)C2)c1c(Cl)ccc2nc(N3CCC[C@H](NCCc4nnn[nH]4)C3)ccc12 |  |  | 13 | 3.08 | 15 | 
45 | CC1(C)[C@@H]2CC[C@@]1(CS(=O)(=O)N1CCN(c3ccc(C#N)cn3)CC1)C(=O)C2 |  |  | > 150 | 2.46 | 103 | 
46 | CCc1c(C)nc(SCC(=O)Nc2nc(-c3ccc(OC)cc3)cs2)nc1O |  |  | 66.1 | 3.78 | 66.1 | 
47 | O=C(NCC12CC3CC(CC(C3)C1)C2)c1ccnc(NCC2CCNCC2)c1Cl |  | 68 | 4 | 0.6 |  | 
48 | Cc1cc(C)nc(SCC(=O)Nc2cc(C)on2)n1 |  |  | 141 | 1.52 | > 150 | 
49 | CCOC(=O)c1c(-c2ccccc2)nc2cc(C)ccn12 |  | > 150 | 148 |  |  | 3.8
50 | CC(=O)c1ncccc1NC(=O)[C@H]1CC[C@H](N2C(=O)[C@@H]3[C@@H]4CC[C@@H](C4)[C@@H]3C2=O)CC1 |  |  | > 150 | 3.01 | 16.6 | 
51 | O=c1[nH]c2c(O)ccc([C@@H](O)CNCCSCCCNCCc3cccc(C(F)(F)F)c3)c2s1 |  |  | 6 | 1.21 | 13 | 
52 | COc1ccc(C(=O)NCc2cn(-c3cc(C)nc4ccc(OC)cc34)nn2)cc1 |  | 64.6 | 13.8 | 3.5 |  | 
53 | N#Cc1cccc(NCC(=O)Nc2c(Cl)ccc3nc(N4CC[C@@H](O)C4)ccc23)c1 |  | 30 | 8 | 2.39 |  | 
54 | Cc1nccn1CCC(C(N)=O)(c1ccccc1)c1ccccc1 [IMIDAFENACIN] |  |  | 46 | 1.79 | < 3 | 
55 | O=c1[nH]c2c(O)ccc([C@@H](O)CNCCc3ccc(CNCCc4ccccc4F)cc3)c2s1 |  | 22 | 14 | 1.3 |  | 
56 | O=C1NC(=O)/C(=C/c2ccc3c(c2)OC(F)(F)O3)S1 |  |  | 4.17 | 2.8 | 19.5 | 
57 | COc1cc(Nc2nc3c(cc2F)ncn3[C@@H](CO)c2ccc(F)cn2)n[nH]1 |  | 7.24 | 27.5 | 2.18 |  | 
58 | Cc1ccccc1NC(=O)CCS(=O)(=O)c1ccc(Br)s1 |  |  | > 150 | 2.7 | 46.8 | 
59 | O=c1[nH]c2c(O)ccc([C@@H](O)CNCCSCCCOCCc3ccccc3)c2s1 |  | 75 | > 150 | 2.54 |  | 
60 | COc1ccc(Cc2c(N)n[nH]c2N)cc1 |  |  | 3.63 | 0.2 | 5.37 | 
61 | COc1cc(-c2ccc(Nc3ccccc3C(=O)O)c(OC)c2)ccc1Nc1ccccc1C(=O)O |  |  | 31.6 | 1.8 | 6.61 | 
